Measurements reported in US9345703B2, “Kappa opioid receptor effectors and uses thereof” (University of Kansas, priority 2011, dated 2016).
≈ marks a conversion by molar mass, not a printed value. Marks after values point to notes of the source that are not given here.

Columns and labels:
[1] = Hepatic microsome stability, human; type: in vitro ADME; settings: human microsomes, 1 hour
Text: The microsomal stability assay is commonly used to rank compounds according to their metabolic stability. This assay addresses the pharmacologic question of how long the parent compound will remain circulating in plasma within the body.

[2] = Plasma protein binding, mouse; type: in vitro ADME
Text: (§1) Plasma protein binding is a measure of a drug's efficiency to bind to the proteins within blood plasma. The less bound a drug is, the more efficiently it can traverse cell membranes or diffuse. Highly plasma protein bound rugs are confined to the vascular space, thereby having a relatively low volume of distribution. In contrast, drugs that remain largely unbound in plasma are generally available for distribution to other organs and tissues. In the instant case, the Chemotype I antagonist 1{3} was marginally available with 88.46% and 80.07% bound to 1 μM and 10 μM mouse plasma protein, respectively, and 93.96% and 88.54% bound to 1 μM and 10 μM human plasma protein, respectively.

DOR [3] = target: T1, DOR (Homo sapiens, UniProt P41143); assay: High content imaging β-arrestin translocation assay, DOR antagonist (DOR HCS); type: cell-based; settings: antagonist; average; read-out: Potency, Antitarget DOR HCS
Text: (§2) In this campaign, two assay platforms were employed to evaluate KOR activity and selectivity: the KOR1 DISCOVERX β-Arrestin […] assay and an imaging based β-arrestin translocation assay for confirmatory and selectivity assays. The KOR1 DISCOVERX β-Arrestin […] assay is a commercial platform for direct measurement of GPCR (G protein-coupled receptor) activation by detection of β-Arrestin binding to the KOR. […] In cells that stably express these fusion proteins, ligand stimulation results in the recruitment of β-Arrestin by the GPCR. This interaction encourages the complementation of the two β-galactosidase fragments resulting in the formation of a functional enzyme that converts substrate in the assay medium to a detectable signal. The imaging based high-content β-arrestin translocation assay is based upon the redistribution of β-Arrestin linked to green fluorescent protein (GFP) to the cell surface and detection (Barak, et al. (1997) J. Biol. Chem. 272:27497-27500).
(§3) Initially, a portion (approximately 290,000 compounds) of the MLSMR compound collection was tested in the KOR1 DISCOVERX β-arrestin primary kappa opioid (KOP) agonist and antagonist screens (PUBCHEM AID 1777 and 1778, respectively) at a single concentration point (10 μM). […] These compounds were concurrently tested in a β-galactosidase counterscreen assay (PUBCHEM AID 1966) to assess the possibility that these compounds might inhibit the reporting enzyme. […] The KOR:DOR:MOR selectivity of the compounds was determined using the analogous β-arrestin translocation assays for the DOR (PUBCHEM AID 2370 and 2357, for agonists and antagonist, respectively) and the MOR (PUBCHEM AID 2352 and 2420, for agonists and antagonists, respectively).

[4] = Plasma protein binding, human; type: in vitro ADME
Text: as §1

KOP receptor [5] = target: T2, KOP receptor (Homo sapiens, UniProt P41145); assay: ERK 1/2 activation, inhibition; type: cell-based
Plasma stability, mouse = type: in vitro ADME
Text: Plasma stability is a measure of the stability of small molecules and peptides in plasma and is an important parameter that can strongly influence the in vivo efficacy of a test compound. Drug candidates are exposed in plasma to enzymatic processes (proteinases, esterases), and they can undergo intramolecular rearrangement or bind irreversibly (covalently) to proteins.

MOR [6] = target: T3, MOR (Homo sapiens, UniProt P35372); assay: High content imaging β-arrestin translocation assay, MOR antagonist (MOR HCS); type: cell-based; settings: antagonist; average; read-out: Potency, Antitarget MOR HCS
Text: as §2, §3

[7] = Stability in PBS at room temperature; type: physicochemical; settings: 48 hours, <0.1% DMSO
physchem = assay: physchem
Experimental: In addition to profiling the selectivity of this class of KOR ligands, basic pharmacological properties were assessed.

KOP receptor [8] = target: T2, KOP receptor; assay: 35S-GTPγS coupling, inhibition; type: biochemical
D3 = D3 (Homo sapiens, UniProt P35462); assay: PDSP radioligand binding assay
Experimental: (§4) The broader selectivity of compound 1{3} was tested against additional targets and basic pharmacological properties were assessed. […] The compound was initially screened in radioligand binding assays at a constant concentration (10 μM) to identify possible activity of the compound. Results showing significant activity in the initial screen were selected for Ki determinations.
(§5) As a representative of the Chemotype II series, the MLPCN probe molecule 2{8} was subjected to a binding assay panel of 44 GPCR and other molecular targets by the Pyschoactive Drug Screening Program (PDSP) (Table 10). The compound was initially screened in a radioligand binding assay at a constant concentration (10 μM) to identify possible activity of the compound. Results showing significant activity in the initial screen were selected for Ki determinations.

MOR [9] = target: T3, MOR; assay: PDSP radioligand binding assay
Experimental: as §4, §5

DOR [10] = target: T1, DOR; assay: PDSP radioligand binding assay
Experimental: as §4, §5

in vitro = settings: for Papp: PAMPA
Experimental: (§6) PAMPA is used as an in vitro model of passive, transcellular permeability. An artificial membrane immobilized on a filter is placed between a donor and acceptor compartment. At the start of the test, drug is introduced in the donor compartment (at various pH). Following the permeation period, the concentrations of compound in the donor compartment and acceptor compartment are measured using UV spectroscopy.

[11] = pH 7.4
Experimental: as §6

[12] = system: Fa2N-4 immortalized human hepatocytes; assay: Hepatocyte toxicity; settings: read-out: LC50; Fa2N-4 hepatocytes
DAT = DAT (Homo sapiens, UniProt Q01959); assay: PDSP radioligand binding assay; settings: Table 10
Experimental: as §4, §5

MOR [13] = target: T3, MOR; assay: High content imaging based β-arrestin translocation assay, MOR agonist (MOR HCS); type: cell-based; settings: n = 2, read-out: Average Potency MOR HCS
Text: as §2, §3

[14] = Table 10, average of separate Ki determinations

T3 sequence (P35372 whole entry): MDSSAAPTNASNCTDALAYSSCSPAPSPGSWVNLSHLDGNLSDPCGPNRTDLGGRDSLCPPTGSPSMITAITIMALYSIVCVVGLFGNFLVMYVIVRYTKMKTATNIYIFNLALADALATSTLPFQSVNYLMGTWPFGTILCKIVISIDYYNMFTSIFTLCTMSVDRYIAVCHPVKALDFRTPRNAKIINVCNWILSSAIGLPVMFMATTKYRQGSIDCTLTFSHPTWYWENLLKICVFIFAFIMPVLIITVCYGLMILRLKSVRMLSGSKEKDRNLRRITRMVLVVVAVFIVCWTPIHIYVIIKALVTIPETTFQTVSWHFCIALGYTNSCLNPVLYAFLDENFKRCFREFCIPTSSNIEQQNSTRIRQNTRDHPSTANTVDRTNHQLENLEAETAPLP
T1 sequence (P41143 whole entry, the tested form may be a part): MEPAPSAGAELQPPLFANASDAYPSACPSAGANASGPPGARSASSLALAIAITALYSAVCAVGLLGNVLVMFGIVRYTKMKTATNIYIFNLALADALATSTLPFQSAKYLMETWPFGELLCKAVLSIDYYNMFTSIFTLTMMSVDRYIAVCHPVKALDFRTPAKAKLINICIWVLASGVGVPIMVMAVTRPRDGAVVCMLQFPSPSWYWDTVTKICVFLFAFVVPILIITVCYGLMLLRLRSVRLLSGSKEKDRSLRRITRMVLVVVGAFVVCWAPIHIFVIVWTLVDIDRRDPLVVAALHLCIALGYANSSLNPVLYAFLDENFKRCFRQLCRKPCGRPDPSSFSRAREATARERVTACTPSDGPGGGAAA
T2 sequence (P41145 whole entry): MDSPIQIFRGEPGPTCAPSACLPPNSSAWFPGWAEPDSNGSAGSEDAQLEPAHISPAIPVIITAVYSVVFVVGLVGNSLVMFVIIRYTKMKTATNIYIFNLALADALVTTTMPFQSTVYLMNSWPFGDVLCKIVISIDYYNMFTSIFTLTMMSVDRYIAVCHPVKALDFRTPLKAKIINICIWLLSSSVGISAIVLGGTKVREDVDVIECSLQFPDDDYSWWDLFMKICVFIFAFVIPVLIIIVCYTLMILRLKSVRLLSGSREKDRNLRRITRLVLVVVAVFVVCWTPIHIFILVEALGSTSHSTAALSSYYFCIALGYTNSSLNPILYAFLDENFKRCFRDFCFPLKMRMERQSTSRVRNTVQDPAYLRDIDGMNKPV
Chain of D3 (P35462 whole entry): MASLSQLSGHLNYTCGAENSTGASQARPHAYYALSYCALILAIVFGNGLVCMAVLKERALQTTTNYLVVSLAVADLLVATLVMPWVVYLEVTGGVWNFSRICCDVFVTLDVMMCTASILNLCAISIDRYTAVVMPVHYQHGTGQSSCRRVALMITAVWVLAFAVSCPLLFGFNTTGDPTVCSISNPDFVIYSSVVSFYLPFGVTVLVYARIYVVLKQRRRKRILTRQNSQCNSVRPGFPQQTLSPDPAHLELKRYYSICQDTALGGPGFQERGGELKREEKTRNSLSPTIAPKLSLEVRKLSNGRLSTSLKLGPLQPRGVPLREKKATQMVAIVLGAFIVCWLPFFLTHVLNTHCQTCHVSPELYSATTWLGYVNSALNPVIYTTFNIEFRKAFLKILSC
Chain of DAT (Q01959 whole entry, species assumed): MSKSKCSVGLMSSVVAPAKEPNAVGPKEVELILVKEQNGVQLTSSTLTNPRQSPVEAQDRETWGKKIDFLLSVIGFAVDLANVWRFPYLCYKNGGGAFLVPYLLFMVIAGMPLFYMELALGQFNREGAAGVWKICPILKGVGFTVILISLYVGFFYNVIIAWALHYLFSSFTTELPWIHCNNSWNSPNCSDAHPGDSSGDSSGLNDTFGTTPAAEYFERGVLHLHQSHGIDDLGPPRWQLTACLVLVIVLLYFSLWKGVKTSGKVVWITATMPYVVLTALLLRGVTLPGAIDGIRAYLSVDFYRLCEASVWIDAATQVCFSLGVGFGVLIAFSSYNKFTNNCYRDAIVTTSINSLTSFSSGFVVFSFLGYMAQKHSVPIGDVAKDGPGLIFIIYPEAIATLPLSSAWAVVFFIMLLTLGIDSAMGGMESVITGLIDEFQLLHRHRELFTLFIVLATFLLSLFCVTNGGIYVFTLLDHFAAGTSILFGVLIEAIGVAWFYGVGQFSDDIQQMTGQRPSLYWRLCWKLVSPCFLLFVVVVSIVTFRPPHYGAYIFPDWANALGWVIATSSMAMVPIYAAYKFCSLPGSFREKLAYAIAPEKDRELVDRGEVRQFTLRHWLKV

Compound: COc1ccc(N2CCN(CCCNC(=O)Cn3c(=O)c4cccn4c4c(C)ccnc43)CC2)cc1 [Compound 1{3}, N-(3-(4-(4-Methoxyphenyl)piperazin-1-yl)propyl)-2-(1-methyl-6-oxopyrido[2,3-e]pyrrolo[1,2-a]pyrazin-5(6H)-yl)acetamide]
- microsomal stability, remaining [1]: 22%
- fraction unbound at 1 μM ([2]; plasma, mouse, 1 μM, read-out: bound to plasma protein (converted)): 0.115
- fraction unbound at 10 μM ([2]; plasma, mouse, 10 μM, read-out: bound to plasma protein (converted)): 0.199
- IC50 (DOR [3]): > 32 µM
- fraction unbound at 1 μM ([4]; plasma, human, 1 μM, read-out: bound to plasma protein (converted)): 0.0604
- fraction unbound at 10 μM ([4]; plasma, human, 10 μM, read-out: bound to plasma protein (converted)): 0.115
- Imax (% NBNI) (KOP receptor [5]): 90 ± 2^a % NBNI
- plasma stability, remaining (Plasma stability, mouse; mouse, plasma, 3 h): 100%
- IC50 (MOR [6]): > 32 µM
- parent compound remaining [7]: 94.42%
- solubility (physchem; aqueous buffer): > 90 µg/mL
- solubility (physchem; pH 5): 96.6 µg/mL (≈ 198 µM)
- solubility (physchem; pH 6.2): 90.6 µg/mL (≈ 185 µM)
- Imax (% NBNI) (KOP receptor [8]): 117 ± 5^a % NBNI
- Ki (D3; Table 5): 0.25 µM
- Ki (MOR [9]; Table 5): 1.58 µM
- Ki (DOR [10]; Table 5): 1.44 µM
- Papp (in vitro; pH 5): 27 ×10⁻⁶ cm/s
- Papp (in vitro; pH 6.2): 227 ×10⁻⁶ cm/s
- Papp (in vitro; pH 7.4): 757 ×10⁻⁶ cm/s
- blood brain barrier PAMPA permeability [11]: 51 ×10⁻⁶ cm/s

Compound: Clc1ccc(CSc2nnc(-c3ccccn3)n2Cc2ccco2)cc1Cl [Compound 2{8}]
- microsomal stability, remaining [1]: 0.03%
- bound to plasma ([2]; mouse plasma): > 99%
- bound to plasma ([4]; human plasma): > 99%
- plasma stability, remaining (Plasma stability, mouse; mouse plasma, 3 hours): 100%
- solubility in aqueous buffer (physchem; pH 5.0): < 0.1 µg/mL
- solubility in aqueous buffer (physchem; pH 6.2): 0.29 µg/mL (≈ 0.695 µM)
- solubility in aqueous buffer (physchem; pH 7.4): 0.14 µg/mL (≈ 0.335 µM)
- CC50 [12]: > 50 µM
- Ki (DAT): > 10 µM
- Ki (D3; Table 10): > 10 µM
- Ki (MOR [9]; [14]): 1.9 µM
- Ki (DOR [10]; [14]): 5.35 µM
- PAMPA permeability (in vitro; donor pH 5): 1793 ×10⁻⁶ cm/s
- PAMPA permeability (in vitro; donor pH 6.2): 1921 ×10⁻⁶ cm/s
- PAMPA permeability (in vitro; donor pH 7.4): 2089 ×10⁻⁶ cm/s
- EC50 (MOR [13]): > 32 µM
